In article PMC8137473, “Preclinical trial of a MAP4K4 inhibitor to reduce infarct size in the pig: does cardioprotection in human stem cell-derived myocytes predict success in large mammals?” (Basic Research in Cardiology, 2021):
Several values for one entry are separate records, joined by “and”; a condition that tells them apart may be missing. Equal values may be shown once.

Assays:
376 kinases = tested on: 376 kinases; set-up: method as in PMID 30853557; details: cited from earlier work
[1] = plasma levels of DMX-5804 in swine during DMX-10001 infusion (efficacy study); assay type: in vivo, pig
Procedure: Compound concentrations after dosing were measured as follows by liquid chromatography–mass spectrometry (Pharmidex, London, UK). To 50 µL aliquots of plasma was added 200 µL of internal standard solution (methanol containing 500 ng/mL tolbutamide). Samples were then mixed (150 rpm, 20 min) and centrifuged (3000 rpm, 15 min). 75 µL of the resulting supernatant was added to 75 µL 10 mM ammonium acetate + 0.5% ammonia) and mixed (450 rpm, 15 min). Calibration standards covering the expected concentration range were prepared by spiking analyte into control matrix, with extraction and analysis in the same way as the plasma samples.
Analysis was done by liquid chromatography–mass spectrometry using a Shimadzu Nexera X2 ultra-high-pressure liquid chromatography system coupled to a Shimadzu LCMS 8060 triple quadruple mass spectrometer (Shimadzu, Milton Keynes, UK) with Waters Acquity BEH C18 (50 × 2.1)mm, 1.7 µm column (Waters, Elstree, UK) and mobile phase components 10 mM ammonium acetate + 0.5% ammonia (A) and methanol + 0.5% ammmonia (B). Gradient was 0–0.5 min 30% B; 0.5 to 2.5 min increase to 80% B; 2.5–2.6 min increase to 98% B; 2.6–3 min 98% B; 3–3.1 min decrease to 30% B; 3.1–3.5 min 30% B. Flow rate was 0.4 mL/min. Injection volume was typically 5 µL. Detection was by multiple reaction monitoring, DMX-5804 361.9 > 304.1 (positive ion), DMX-10001 470.1 > 258.0 (negative ion), and tolbutamide 271.0 > 91.0 (positive ion). Retention times were DMX-5804 2.9 min, DMX-10001 2.1 min, and tolbutamide 1.8 min. Data processing was done by Shimadzu LabSolutions Software (Shimadzu, Milton Keynes, UK).
Results were corrected for plasma protein binding by rapid equilibrium dialysis to calculate free drug levels, and were subjected to iterative computer modeling (XenoGesis, Alderley Park, UK) using Phoenix64 WinNonlin (Certara, Princeton, NJ), to devise the infusion protocol.
At several time-points (see Fig. 2), blood samples were taken in lithium-heparin-coated tubes (BD, Plymouth, UK) to analyze plasma levels of DMX-10001 (pro-drug) and DMX-5804 (active compound) and in EDTA-coated tubes (BD, Plymouth, UK) to measure heart-type fatty acid binding protein (hFABP). All blood samples were kept on ice immediately after withdrawal and were centrifuged for 10 min at 3000 rpm and 4 °C within 6 h. Plasma was aliquoted and cryopreserved at − 80 °C until analysis. Levels of DMX-10001 and DMX-5804 were determined by liquid chromatography–mass spectrometry (Pharmidex, London, UK). Porcine hFABP was analyzed as described: plasma samples were thawed on ice, diluted 10 × using the standard diluent provided with the kit, and analyzed by enzyme-linked immunosorbent assays according to the manufacturer’s instructions (Life Diagnostics, West Chester, PA). Absorbance was measured at 450 nm with a microplate photometer (Multiskan EX, Thermo Scientific, Etten-Leur, The Netherlands).

[2] = set-up: method as in PMID 30853557; details: mice, twice daily oral dosing of DMX-5804; cited from earlier work
hPSC-CMs = tested on: hPSC-CMs; set-up: method as in PMID 30853557; details: cited from earlier work
MAP4K4 = MAP4K4 (Homo sapiens, UniProt O95819); test: cell-free biochemical assay, MAP4K4 inhibition; details: cell-free biochemical assays; read-out: IC50 against MAP4K4
Text: DMX-10001, a rapidly hydrolyzed phosphate pro-drug of DMX-5804, was produced by Domainex Ltd, by a modification of the latter’s synthetic route, attaching a hydrolysable phosphate group via a linker to the core of DMX-5804 (Fig. 1a). This removes a key hydrogen bonding group and prevents DMX-10001 from binding to the hinge region of the MAP4K4 kinase domain. […] Furthermore, this modest value is likely driven by minute levels of DMX-5804 either present in the sample or generated during by hydrolysis during the assay.

aqueous solubility = assay type: physicochemical
Procedure: The chemical structures of DMX-5804 and DMX-10001 are compared in Fig. 1a, highlighting the phosphate moiety of the pro-drug. The aqueous solubility of DMX-10001 was > 400-fold greater than that of DMX-5804, allowing it to be infused i.v. without prohibitive fluid volumes. Cleavage to DMX-5804 was detectable in rats within 5 min and largely complete within 60 min (Fig. 1b). Data from i.v. infusion at a range of dose levels in the pig were simultaneously fit to a three-compartment pharmacokinetic model. Plasma protein binding in pig was used to determine free drug levels (not shown). Various dosing regimens were simulated to avoid an initial spike in DMX-5804 whilst rapidly achieving the efficacious drug levels seen in mice after oral gavage (Fig. 1c).

[3] = tested on: engineered human heart tissue; set-up: method as in PMID 30853557; details: cited from earlier work
[4] = tested on: mouse myocardial infarction; set-up: method as in PMID 30853557; details: mice, even given an hour after reperfusion; cited from earlier work
humans = details: cited from earlier work; for cardioprotection in human trials: 16 (TRO40303), 5, 20 (cyclosporine), 21, 29 (cariporide)
pigs = details: cited from earlier work; for cardioprotection findings in pigs: 16 (TRO40303), 5, 20 (cyclosporine), 21, 29 (cariporide)
[5] = pigs, pro-drug DMX-10001 infusion (60 mg/kg/h 0.5 h + 17 mg/kg/h 23.5 h)

MAP4K4, sequence (O95819 whole entry, species assumed, the tested form may be a part): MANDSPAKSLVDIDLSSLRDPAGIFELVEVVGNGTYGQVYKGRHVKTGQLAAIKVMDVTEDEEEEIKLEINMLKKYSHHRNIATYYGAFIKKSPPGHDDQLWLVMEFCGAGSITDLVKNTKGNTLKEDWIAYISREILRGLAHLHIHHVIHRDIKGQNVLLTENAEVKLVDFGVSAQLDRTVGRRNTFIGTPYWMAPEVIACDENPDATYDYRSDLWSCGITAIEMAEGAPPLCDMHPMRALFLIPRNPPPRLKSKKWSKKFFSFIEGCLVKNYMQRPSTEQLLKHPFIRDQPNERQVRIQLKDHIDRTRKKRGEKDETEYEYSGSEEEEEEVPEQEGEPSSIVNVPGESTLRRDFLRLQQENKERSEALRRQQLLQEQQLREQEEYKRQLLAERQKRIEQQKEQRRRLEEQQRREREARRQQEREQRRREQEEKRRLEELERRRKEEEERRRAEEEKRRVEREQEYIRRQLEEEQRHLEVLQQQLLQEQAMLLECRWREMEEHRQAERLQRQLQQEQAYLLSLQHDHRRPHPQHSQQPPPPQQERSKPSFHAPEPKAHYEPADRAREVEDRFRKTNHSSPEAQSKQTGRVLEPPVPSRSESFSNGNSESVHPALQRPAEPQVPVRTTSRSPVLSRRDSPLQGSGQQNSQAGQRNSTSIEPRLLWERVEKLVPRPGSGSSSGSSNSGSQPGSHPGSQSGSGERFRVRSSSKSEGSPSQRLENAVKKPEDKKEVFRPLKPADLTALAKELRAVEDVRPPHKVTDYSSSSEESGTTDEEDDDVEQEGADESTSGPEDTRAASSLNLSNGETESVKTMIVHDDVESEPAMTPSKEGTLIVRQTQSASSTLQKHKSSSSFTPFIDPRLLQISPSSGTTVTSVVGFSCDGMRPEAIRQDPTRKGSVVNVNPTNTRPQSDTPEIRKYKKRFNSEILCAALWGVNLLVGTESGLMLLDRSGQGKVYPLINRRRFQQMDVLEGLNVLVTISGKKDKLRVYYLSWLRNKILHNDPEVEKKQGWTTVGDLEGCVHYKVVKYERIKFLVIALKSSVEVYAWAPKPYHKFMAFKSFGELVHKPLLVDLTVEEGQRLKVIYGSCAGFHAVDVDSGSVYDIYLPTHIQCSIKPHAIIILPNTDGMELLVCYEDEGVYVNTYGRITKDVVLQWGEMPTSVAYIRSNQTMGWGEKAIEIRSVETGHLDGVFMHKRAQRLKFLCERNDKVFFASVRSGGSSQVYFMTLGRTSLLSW

In the case of `COCCOc1ccc(-c2cn(-c3ccccc3)c3nc[nH]c(=O)c23)cc1` [DMX-5804], the “selectivity among 376 kinases” value (376 kinases) is given as “interfering potently just with MINK1/MAP4K6 and TNIK/MAP4K7”, the “target level of DMX-5804, based on successful reduction of IS in mice” value ([1]; after infusion with DMX-10001) is given as “achieved in all animals” and the “levels of DMX-5804 generated in pigs relative to those in mice” value ([1]; at the corresponding times after injury) is given as “at least tenfold”. The “free AUC0-24 of DMX-5804” value [1, 5] was 27,900 h.nM, the “free Cav of DMX-5804” value [1, 5] was 1,160 nM and the “DMX-5804 concentrations relative to the levels that rescued hPSC-CMs and reduced IS in mice” value ([1]; swine, all times tested beginning 30 min after the start of DMX-10001 infusion) was “> fivefold”. The “free AUC0–22 of DMX-5804” value [2] was 2,200 h.nM, the “death from oxidative stress in hPSC-CMs” value (hPSC-CMs) was “suppressed death from oxidative stress” and the EC50 (hPSC-CMs; vCor.4U cells treated with 400 μM H2O2, read-out: EC50 for reducing cell death) was 500 nM. For the same compound, the IC50 (MAP4K4) was 3 nM, the aqueous solubility (aqueous solubility) was “inadequate for i.v. delivery” and the “cell death in engineered human heart tissue” value [3] was “blocked cell death”. For the same compound, the “reduction of infarct size (IS)” value [4] was 50% and > 50%.

In the case of `CC(C)CCC[C@@H](C)[C@H]1CC[C@H]2[C@@H]3CC/C(=N\O)[C@](C)(CCCO)[C@H]3CC[C@]12C` [TRO40303], the “cardioprotection in human trials” value (humans) is given as “failures of cardioprotection” and the “cardioprotection findings in pigs” value (pigs) is given as “weak or negative findings”.

In the case of `Nc1ncnc2c1ncn2[C@@H]1O[C@H](CO)[C@@H](O)[C@H]1O` [adenosine], the protection in swine (pigs; bolus) is listed as “gave no protection”.

In the case of `CC(C)c1ccc(C(=O)NC(=N)N)cc1S(C)(=O)=O` [cariporide], the “cardioprotection in human trials” value (humans) is listed as “failures of cardioprotection” and the “cardioprotection findings in pigs” value (pigs) is listed as “weak or negative findings”.

In the case of liraglutide, the “myocardial salvage in humans” value (humans) is listed as “improved myocardial salvage” and the results in pigs (pigs) is listed as “negative results”.
